Measurements as given in patent publication US5166379A, “Synthesis of compounds with biological activity, and methods of use” (Harbor Branch Oceanographic Institution, Inc., priority 1990, dated 1992).
Values after ≈ are worked out from the molar mass of the structure shown. Where two headings read alike, the source gives them in different places.

Key:
[1] = tested on: murine splenocyte suspensions (BALB/c and C57BL/6J mice); test: Mixed Lymphocyte Reaction (MLR); format: cell-based; conditions: Mus musculus, Splenocyte, read-out: % MLR (percentage of positive control)
Method: I. Mixed Lymphocyte Reaction
1. Murine splenocyte suspensions were prepared separately from BALB/c and C57BL/6J mice. […] The cell concentrations were adjusted to 2.5×10^6 cells/ml. Aliquots of each cell population were removed to separate tubes, and the remaining two cell suspensions combined to one tube.
(§1) 2. Serial, log10 dilutions of the pure compound were made in absolute ethanol, and 10 μl of each dilution was added to wells of microtiter test plates, and allowed to dry.
3. A volume of 0.2 ml of the combined splenocyte suspensions was added to triplicate test wells. Positive control wells received combined splenocyte suspensions in the absence of the test compounds. Negative control wells consisted of separate (not mixed) splenocyte suspensions cultured in the absence of the test compounds.
4. Plates were incubated in 5% CO2 at 37° C. for 86 hours.
5. A volume of 0.05 ml of ^3 H-thymidine (20 μCi/ml) was added to each well, and the plates were incubated in 5% CO2 at 37° C. for an additional 5 hours.
6. The contents of each well of the microtiter plates were harvested onto glass fiber filter strips, and the resulting filter discs placed in scintillation vials to which 2.0 ml of scintillation fluid was added.
7. The amount of incorporated ^3 H-thymidine was determined by counting the vials in a liquid scintillation counter.
8. Triplicate counts were averaged, and the data reported as a percentage of the positive control.

[2] = Lymphocyte Viability Assay (LCV); format: cell-based, murine; conditions: mouse, splenocytes, read-out: % LCV (percentage of positive control)
Method: II. Lymphocyte Viability Assay
1. Compounds were similarly tested in parallel with the MLR to determine their toxic effects on lymphoid cells using the lymphocyte viability assay (LCV).
as §1
3. Murine splenocyte suspensions were prepared from BALB/c mice. […] The cell concentrations were adjusted to 2.5×10^6 cells/ml.
4. A volume of 0.2 ml of the splenocyte suspension was added to replicate test wells. Positive control wells received splenocyte suspensions in the absence of the test compounds.
5. Plates were incubated at 37° C. for 86 hours. At the end of the incubation period, a volume of 75 μl of a 2.0 mg/ml solution of MTT was added to each well, and the plates were returned to the incubator for an additional 5 hours.
6. The supernatants from each microwell were then removed, and a volume of 200 μl of isopropanol was added and the contents mixed.
7. Values were obtained by comparing the optical densities (determined at 570 and 650 nm) of wells containing the test compounds with those of wells containing cells and medium only (positive control). The results are expressed as a percentage of the positive control.
8. Replicate counts were averaged, and the data reported as a percentage of the positive control. An LCV value of less than 60% of the positive control is an indication of cytotoxicity of the test compounds for lymphoid cells.

P388 cells = test: Antiproliferative effects against P388 cells (antitumor, MTT); format: cell-based; conditions: Mus musculus, P388, 48 hour exposure
Method: IV. Antitumor Methodology
To assess the antiproliferative effects against P388 cells, 200 μl cultures (96-well tissue culture plates, Nunc, Denmark) were established at 1×10^5 cells/ml in drug-free medium or medium containing the pure compounds/crude extracts at a final dilution or 1:500 and at various concentrations. Solvent for all dilutions was methanol, which was removed from plates under vacuum. All experimental cultures were initiated in media containing Gentamicin sulfate (50 μg/ml; Schering Corporation, Kenilworth, NJ).
To quantitate the effects of pure compounds/crude extracts on cell proliferation, 75 μl of warm growth medium containing 5 mg/ml MTT was added to each well, cultures were returned to the incubator, and were left undisturbed for 90 minutes. To spectrophotometrically quantitate formation of reduced formazan, plates were centrifuged (900×g, 5 minutes), culture fluids removed by aspiration, and 200 μl of acidified isopropanol (2 ml concentrated HCl/liter isopropanol) added per well. The absorbance of the resulting solutions were measured at 570 nm with a plate reader (MR700 Microplate Reader, Dynatech Laboratories, Chantilly, VA).

[3] = tested on: graft vs host reaction in CB6F1 mice grafted with BALB/c splenocytes; test: Graft vs. Host (GVHR) in vivo activity; conditions: for % Suppression / Stim. Index (spleen index): i.p.
Method: III. Graft vs. Host (GVHR) In Vivo Activity
1. Donor mice (BALB/c) were sacrificed, spleens removed, and spleen cell suspensions prepared in tissue culture medium.
2. The above splenocyte suspension was adjusted to 10.0×10^7 cells/ml.
3. Mice were treated with varying dosages of the test compound. […] Treatment consisted of intraperitoneal injections, daily for 7 days. Dosages were calculated on a mg per kg body weight basis.
4. On day 1 of the first treatment regimen, recipient mice (CB6) were injected intraperitoneally with 0.50 ml (50.0×10^6) of the donor (BALB/c) splenocyte suspension.
5. Controls consisted of the following:
POS--mice receiving BALB/c splenocytes (Positive Control)
SYN--mice receiving CB6 splenocytes (Syngeneic Control)
CYP--mice receiving Cyclophosphamide (100 mg/kg) and BALB/c splenocytes
6. At the end of five days, recipient mice were sacrificed, weighed, and spleens removed and weighed.
7. A spleen index of 1.0 was assigned to the mean spleen weights (adjusted to body weight) of the SYN controls. The spleen index of treated mice was determined by comparing the spleen weights of those mice with that of the […]. […] As a general rule, a spleen index of less than the positive control is indicative of an immunosuppressive (ID) compound.
^a CB6F1 mice (5 mice per group) were grafted with 5 ×
10^7 BALB/c spelnocytes, i.p. on Day 0. Groups were injected, ii.p.,
with drug (or vehicle) on Days 1-6. Positive designates grafted mice
receiving vehicle alone.
^b Number of surviving mice at end of experiment.
(Stimulation Index of Syngeneic group (CB6F1 ->CB6F1) = 100

Compound: C#CC(O)/C=C/CCCCCCCCCCCCCCC (stereo not shown) [CH3 (CH2)14 CH=CH--CHOH--C≡CH]
- activity at 0.05 µg/mL ([1]; 0.05 μg/ml): 0%
- activity at 0.2 µg/mL ([1]; 0.2 μg/ml): 0%
- activity at 0.8 µg/mL ([1]; 0.8 μg/ml): 0%
- activity at 3.1 µg/mL ([1]; 3.1 μg/ml): 0%
- activity at 12.5 µg/mL ([1]; 12.5 μg/ml): 0%
- activity at 50 µg/mL ([1]; 50 μg/ml): 0%
- viability ([2]; 0.05 μg/ml): 63%
- viability ([2]; 0.2 μg/ml): 42%
- viability ([2]; 0.8 μg/ml): 20%
- viability ([2]; 3.1 μg/ml): 19%
- viability ([2]; 12.5 μg/ml): 19%
- viability ([2]; 50 μg/ml): 11%
- IC50 (P388 cells): 9.4 µg/mL (≈ 32.1 µM)
- % Suppression ([3]; 25.0 mg/kg): 45%
- Stim. Index (spleen index) ([3]; 25.0 mg/kg): 1.63 ± .25
- % Suppression ([3]; 50.0 mg/kg): 25%
- Stim. Index (spleen index) ([3]; 50.0 mg/kg): 1.86 ± .18
- % Suppression ([3]; 100 mg/kg): 0%
- Stim. Index (spleen index) ([3]; 100 mg/kg): 2.35 ± .15
- % Suppression ([3]; 150.0 mg/kg): 81%
- Stim. Index (spleen index) ([3]; 150.0 mg/kg): 1.22 ± .03
- suppression of the GVHR (splenomegaly response), in words ([3]; mouse, in vivo): could mediate the suppression of the GVHR
